From patent publication US5807854A, “Pyrimidone derivatives with antifungal activity” (J. Uriah & Cia. S.A., priority 1995, dated 1998)
Converted amounts (≈) assume the structure as drawn.

Columns and labels:
C. albicans = test: In vitro activity by the agar dilution method, C. albicans; format: cell-based; conditions: Candida albicans; Kimmig's agar, 25° C., 48 h; read-out: MIC (minimal inhibitory concentration), C. albicans
Method: (§1) In vitro activity was evaluated against C. albicans, C. krusei, and Aspergillus fumigatus by the agar dilution method. Test strains were either clinical isolates or were obtained from ATCC. Stock solutions containing 800 μg/mL were prepared by solving the test products in 50% ethanol. The culture medium used was Kimmig's agar (K. A., E. Merck) supplemented with 0.5% glycerol. Plates containing serial dilutions (80 to 0.025 gg/imL) of the test products were inoculated with 10 μL of the fungal inocula, containing 10^5 colony forming units (cfu)/mL. Plates were incubated at 25° C. during 48 h for Candida sp. and during 5 days for Apergillus fumigatus. Following incubation MICs (minimal inhibitory concentrations) were determined.

C. krusei = test: In vitro activity by the agar dilution method, C. krusei; format: cell-based; conditions: Pichia kudriavzevii; Kimmig's agar, 25° C., 48 h; read-out: MIC (minimal inhibitory concentration), C. krusei
Method: as §1

Aspergillus fumigatus = test: In vitro activity by the agar dilution method, Aspergillus fumigatus; format: cell-based; conditions: 120 h, Kimmig's agar, 25° C., 5 days, read-out: MIC (minimal inhibitory concentration), Asp. fumigatus
Method: as §1

Candida albicans = test: In Vivo Activity (Systemic Candidiasis); conditions: po, 576 h, male mice, i.v. infection, read-out: protection on the day where all the animals in the control group had died; for responders at 10 mg/kg: orally at 10 mg/kg (asterisk) at 1, 4 and 24 h after infection; for responders at 1 mg/kg: orally at 1 mg/kg at 1, 4 and 24 h after infection
Method: Groups of 10 male mice were inoculated i.v. with 0.2 mL of a suspension containing (2-8)×10^7 cfu/mL of Candida albicans. Compounds were administered orally at 1 mg/kg (or at 10 mg/kg for those compounds marked with an asterisk) at times 1, 4 and 24 h after infection.

systemic aspergillosis = test: In Vivo Activity (Systemic Aspergillosis); design: species or system mice; conditions: p.o. 20 mg/kg/day, 5 days; control mortality on day 25 was 90%

## C[C@@H](n1cnc2cc(Cl)ccc2c1=O)[C@](O)(Cn1cncn1)c1ccc(F)cc1F [Example 1, (1R,2R)-7-Chloro-3-[2-(2,4-difluorophenyl)-2-hydroxy-1-methyl-3-(1H-1,2,4-triazol-1-yl)propyl]quinazolin-4(3H)-one]
C. albicans
  MIC: ≤ 0.03 µg/mL
C. krusei
  MIC: 0.63 µg/mL (≈ 1.46 µM)
Aspergillus fumigatus
  MIC: 0.31 µg/mL (≈ 0.718 µM)
Candida albicans
  responders at 10 mg/kg: 100%
Systemic aspergillosis
  protection on day 25 postinfection: 60-100%

## C[C@@H](n1cnc2cc(C#N)ccc2c1=O)[C@](O)(Cn1cncn1)c1ccc(F)cc1F [Example 2, (1R,2R)-7-Cyano-3-[2-(2,4-difluorophenyl)-2-hydroxy-1-methyl-3-(1H-1,2,4-triazol-1-yl)propyl]quinazolin-4(3H)-one]
C. albicans
  MIC: ≤ 0.03 µg/mL
C. krusei
  MIC: 1.25 µg/mL (≈ 2.96 µM)
Aspergillus fumigatus
  MIC: 1.25 µg/mL (≈ 2.96 µM)
Systemic aspergillosis
  protection on day 25 postinfection: 60-100%

## C[C@@H](n1cnc2cc(C(F)(F)F)ccc2c1=O)[C@](O)(Cn1cncn1)c1ccc(F)cc1F [Example 16, (1R,2R)-3-[2-(2,4-Difluorophenyl)-2-hydroxy-1-methyl-3-(1H-1,2,4-triazol-1-yl)propyl]-7-trifluoromethylquinazolin-4(3H)-one]
C. albicans
  MIC: ≤ 0.03 µg/mL
C. krusei
  MIC: 0.63 µg/mL (≈ 1.35 µM)
Aspergillus fumigatus
  MIC: 2.5 µg/mL (≈ 5.37 µM)
Candida albicans
  responders at 1 mg/kg: 100%
Systemic aspergillosis
  protection on day 25 postinfection: 60-100%

## C[C@@H](n1cnc2cc(OCC(F)(F)C(F)F)ccc2c1=O)[C@](O)(Cn1cncn1)c1ccc(F)cc1F [Example 17, (1R,2R)-3-[2-(2,4-Difluorophenyl)-2-hydroxy-1-methyl-3-(1H-1,2,4-triazol-1-yl)propyl]-7-(2,2,3,3-tetrafluoropropoxy)quinazolin-4(3H)-one]
C. albicans
  MIC: ≤ 0.03 µg/mL
C. krusei
  MIC: 0.63 µg/mL (≈ 1.19 µM)
Aspergillus fumigatus
  MIC: 20 µg/mL (≈ 37.9 µM)
Candida albicans
  responders at 1 mg/kg: 100%

## C[C@@H](n1cnc2cc(OCC(F)(F)F)ccc2c1=O)[C@](O)(Cn1cncn1)c1ccc(F)cc1F [Example 20, (1R,2R)-3-[2-(2,4-Difluorophenyl)-2-hydroxy-1-methyl-3-(1H-1,2,4-triazol-1-yl)propyl]-7-(2,2,2-trifluoroethoxy)quinazolin-4(3H)-one]
C. albicans
  MIC: 0.31 µg/mL (≈ 0.626 µM)
C. krusei
  MIC: 1.25 µg/mL (≈ 2.52 µM)
Aspergillus fumigatus
  MIC: 10 µg/mL (≈ 20.2 µM)
Candida albicans
  responders at 1 mg/kg: 100%

## C[C@@H](n1cnc2cc(-c3ccc(Cl)cc3)sc2c1=O)[C@](O)(Cn1cncn1)c1ccc(F)cc1F [Example 31, (1R,2R)-6-(4-Chlorophenyl)-3-[2-(2,4-difluorophenyl)-2-hydroxy-1-methyl-3-(1H-1,2,4-triazol-1-yl)propyl]thieno[3,2-d]pyrimidin-4(3H)-one]
C. albicans
  MIC: ≤ 0.03 µg/mL
C. krusei
  MIC: 0.07 µg/mL (≈ 0.136 µM)
Aspergillus fumigatus
  MIC: 2.5 µg/mL (≈ 4.86 µM)
Candida albicans
  responders at 1 mg/kg: 100%
Systemic aspergillosis
  protection on day 25 postinfection: 60-100%

## C[C@@H](n1cnc2cc(-c3ccc(C#N)cc3)sc2c1=O)[C@](O)(Cn1cncn1)c1ccc(F)cc1F [Example 32, (1R,2R)-4-[3-[2-(2,4-Difluorophenyl)-2-hydroxy-1-methyl-3-(1H-1,2,4-triazol-1-yl)propyl]-4-oxo-3,4-dihydrothieno[3,2-d]pyrimidin-6-yl]benzonitrile]
Candida albicans
  responders at 1 mg/kg: 100%
Systemic aspergillosis
  protection on day 25 postinfection: 60-100%

## C[C@@H](n1cnc2cc(Oc3ccc(Cl)cc3)ccc2c1=O)[C@](O)(Cn1cncn1)c1ccc(F)cc1F [Example 39, (1R,2R)-7-(4-Chlorophenoxy)-3-[2-(2,4-difluorophenyl)-2-hydroxy-1-methyl-3-(1H-1,2,4-triazol-1-yl)propyl]quinazolin-4(3H)-one]
C. albicans
  MIC: ≤ 0.03 µg/mL
C. krusei
  MIC: 0.15 µg/mL (≈ 0.286 µM)
Aspergillus fumigatus
  MIC: 1.25 µg/mL (≈ 2.39 µM)
Candida albicans
  responders at 1 mg/kg: 100%

## CSc1ccc2c(=O)n([C@H](C)[C@](O)(Cn3cncn3)c3ccc(F)cc3F)cnc2c1 [Example 50, (1R,2R)-3-[2-(2,4-Difluorophenyl)-2-hydroxy-1-methyl-3-(1H-1,2,4-triazol-1-yl)propyl]-7-(methylthio)quinazolin-4(3H)-one]
C. albicans
  MIC: ≤ 0.03 µg/mL
C. krusei
  MIC: 0.31 µg/mL (≈ 0.699 µM)
Aspergillus fumigatus
  MIC: 2.5 µg/mL (≈ 5.64 µM)
Candida albicans
  responders at 1 mg/kg: 100%

## CONC(=N)c1ccc(-c2cc3ncn([C@H](C)[C@](O)(Cn4cncn4)c4ccc(F)cc4F)c(=O)c3s2)cc1 [Example 67, (1R,2R)-3-[2-(2,4-Difluorophenyl)-2-hydroxy-1-methyl-3-(1H-1,2,4-triazol-1-yl)propyl]-6-[4-[imino(methoxyamino)methyl]phenyl]thieno[3,2-d]pyrimidin-4(3H)-one]
C. albicans
  MIC: 0.31 µg/mL (≈ 0.562 µM)
C. krusei
  MIC: 0.63 µg/mL (≈ 1.14 µM)
Aspergillus fumigatus
  MIC: 1.25 µg/mL (≈ 2.27 µM)
Candida albicans
  responders at 1 mg/kg: 100%

## C[C@@H](n1cnc2cc(Br)ccc2c1=O)[C@](O)(Cn1cncn1)c1ccc(F)cc1F [Example 73, (1R,2R)-7-Bromo-3-[2-(2,4-difluorophenyl)-2-hydroxy-1-methyl-3-(1H-1,2,4-triazol-1-yl)propyl]quinazolin-4(3H)-one]
C. albicans
  MIC: ≤ 0.03 µg/mL
C. krusei
  MIC: 0.31 µg/mL (≈ 0.651 µM)
Aspergillus fumigatus
  MIC: 0.31 µg/mL (≈ 0.651 µM)
Candida albicans
  responders at 10 mg/kg: 100%
Systemic aspergillosis
  protection on day 25 postinfection: 60-100%

## C[C@@H](n1cnc2cc(I)ccc2c1=O)[C@](O)(Cn1cncn1)c1ccc(F)cc1F [Example 74, (1R,2R)-3-[2-(2,4-Difluorophenyl)-2-hydroxy-1-methyl-3-(1-H-1,2,4-triazol-1-yl)propyl]-7-iodoquinazolin-4(3H)-one]
C. albicans
  MIC: ≤ 0.03 µg/mL
C. krusei
  MIC: 0.31 µg/mL (≈ 0.592 µM)
Aspergillus fumigatus
  MIC: 0.31 µg/mL (≈ 0.592 µM)
Candida albicans
  responders at 1 mg/kg: 100%

## C[C@@H](n1cnc2cc(Br)c(F)cc2c1=O)[C@](O)(Cn1cncn1)c1ccc(F)cc1F [Example 75, (1R,2R)-7-Bromo-3-[2-(2,4-difluorophenyl)-2-hydroxy-1-methyl-3-(1H-1,2,4-triazol-1-yl)propyl]-6-fluoroquinazolin-4(3H)-one]
C. albicans
  MIC: 0.15 µg/mL (≈ 0.303 µM)
C. krusei
  MIC: 1.25 µg/mL (≈ 2.53 µM)
Aspergillus fumigatus
  MIC: 2.5 µg/mL (≈ 5.06 µM)
Candida albicans
  responders at 1 mg/kg: 100%

## C[C@@H](n1cnc2cc(-c3ccc(F)cc3)sc2c1=O)[C@](O)(Cn1cncn1)c1ccc(F)cc1F [Example 76, (1R,2R)-3-[2-(2,4-Difluorophenyl)-2-hydroxy-1-methyl-3-(1-H-1,2,4-triazol-1-yl)propyl]-6(4-fluorophenyl)thieno[3,2-d]pyrimidin-4(3H)-one]
C. albicans
  MIC: ≤ 0.03 µg/mL
C. krusei
  MIC: 0.15 µg/mL (≈ 0.302 µM)
Aspergillus fumigatus
  MIC: 1.25 µg/mL (≈ 2.51 µM)
Candida albicans
  responders at 1 mg/kg: 100%

## C[C@@H](n1cnc2cc(-c3ccc(F)cc3)sc2c1=O)[C@](O)(Cn1cncn1)c1ccccc1F [Example 81, (1R,2R)-6-(4-Fluorophenyl)-3-[2-(2-fluorophenyl)-2-hydroxy-1-methyl-3-(1H-1,2,4-triazol-1-yl)propyl]thieno[3,2-d]pyrimidin-4(3H)-one]
C. albicans
  MIC: ≤ 0.03 µg/mL
C. krusei
  MIC: 0.31 µg/mL (≈ 0.646 µM)
Aspergillus fumigatus
  MIC: 10 µg/mL (≈ 20.9 µM)
Candida albicans
  responders at 1 mg/kg: 100%
